US20240226098A1, “COMPOUNDS AND METHODS FOR MODULATING SPLICING” (REMIX THERAPEUTICS INC., priority 2020, published 2024)

Experiments:
Format in all cases: cell-based
[1] = test system: HTT mRNA, canonical junction (CJ); experiment: Splicing assay (RT-qPCR): decrease in HTT canonical junction (CJ) mRNA; details: A673 or K562 cell line, 24 hours treatment, top dose 10 uM; concentration having 50% response in CJ decrease
Protocol: (§1) Compounds described herein were used to modulate RNA transcript abundance in cells. The expression of a target mRNA was measured by detecting the formation of an exon-exon junction in the canonical transcript (CJ). A compound mediated exon-inclusion event was detected by observing an increase in formation of a new junction with an alternative exon (AJ). Real-time qPCR assays were used to detect these splicing switches and interrogate the potency of various compounds towards different target genes. A high-throughput real time quantitative PCR (RT-qPCR) assay was developed to measure these two isoforms of the mRNA (CJ and AJ) for an exemplary gene, HTT, together with a control housekeeping gene, GAPDH or GUSB or PPIA, used for normalization. Briefly, the A673 or K562 cell line was treated with various compounds described herein (e.g., compounds of Formula (I)). After treatment, the levels of the HTT mRNA targets were determined from each sample of cell lysate by cDNA synthesis followed by qPCR.
(§2) • Cells-to-CT 1-step kit: ThermoFisher A25602, Cells-to-CT lysis reagent: ThermoFisher 4391851C, TaqMan™ Fast Virus 1-Step Master Mix: ThermoFisher 4444436 • GAPDH: VIC-PL, ThermoFisher 4326317E (Assay: Hs99999905_ml)—used for K562/suspension cell lines • GUSB: VIC-PL, ThermoFisher 4326320E (Assay: Hs99999908_ml)—used for K562/suspension cell lines • PPIA: VIC-PL, ThermoFisher 4326316E (Assay: Hs99999904_ml)—used for A673/adherent cell lines
(§3) The A673 cell line was cultured in DMEM with 10% FBS. Cells were diluted with full growth media and plated in a 96-well plate (15,000 cells in 100 ul media per well). The plate was incubated at 37° C. with 5% CO2 for 24 hours to allow cells to adhere. An 11-point 3-fold serial dilution of the compounds was made in DMSO then diluted in media in an intermediate plate. Compounds were transferred from the intermediate plate to the cell plate with the top dose at a final concentration of 10 uM in the well. Final DMSO concentration was kept at or below 0.25%. The cell plate was returned to the incubator at 37° C. with 5% CO2 for an additional 24 hours.
(§4) The K562 cell line was cultured in IMDM with 10% FBS. For K562, cells were diluted with full growth media and plated in either a 96-well plate (50,000 cells in 50 uL media per well) or a 384-well plate (8,000-40,000 cells in 45 uL media per well). An 11-point 3-fold serial dilution of the compounds were made in DMSO then diluted in media in an intermediate plate. Compound was transferred from the intermediate plate to the cell plate with the top dose at a final concentration of 10 uM in the well. Final DMSO concentration was kept at or below 0.25%. Final volume was 100 uL for 96-well plate and 50 uL for 384-well plate. The cell plate was then placed in an incubator at 37° C. with 5% CO2 for 24 hours.
(§5) The cells were then gently washed with 50 uL-100 uL cold PBS before proceeding to addition of lysis buffer. 30 uL-50 uL of room temperature lysis buffer with DNAse I (and optionally RNAsin) was added to each well. Cells were shaken/mixed thoroughly at room temperature for 5-10 minutes for lysis to take place and then 3 uL-5 uL of room temperature stop solution was added and wells were shaken/mixed again. After 2-5 minutes, the cell lysate plate was transferred to ice for RT-qPCR reaction setup. The lysates could also be frozen at −80° C. for later use.
(§6) In some cases, a direct lysis buffer was used. An appropriate volume of 3× lysis buffer (10 mM Tris, 150 mM NaCl, 1.5%-2.5% Igepal and 0.1-1 U/uL RNAsin, pH 7.4) was directly added to either K562 or A673 cells in media and mixed by pipetting 3 times. The plates were then incubated at room temperature with shaking/rocking for 20-50 minutes to allow for lysis to take place. After this time, the cell lysate plate was transferred to ice to set up for the RT-qPCR reactions. The lysates could also be frozen at −80° C. for later use. […]

[2] = test system: Target C CJ mRNA; experiment: Gene panel canonical junction qPCR assay: decrease in Target C CJ mRNA; details: protocol as for Table 2, read-out: Target C (IC50, decrease in CJ mRNA levels)
Protocol: as §1, §3, §4, §5
(§7) In some cases, a direct lysis buffer was used. An appropriate volume of 3× lysis buffer (10 mM Tris, 150 mM NaCl, 1.5%-2.5% Igepal and 0.1-1 U/uL RNAsin, pH 7.4) was directly added to either K562 or A673 cells in media and mixed by pipetting 3 times. The plates were then incubated at room temperature with shaking/rocking for 20-50 minutes to allow for lysis to take place. After this time, the cell lysate plate was transferred to ice to set up for the RT-qPCR reactions. The lysates could also be frozen at −80° C. for later use.
(§8) To set up 10 uL RT-qPCR reactions, cell lysates were transferred to 384-well qPCR plates containing the master mix according to the table below. The plates were sealed, gently vortexed, and spun down before the run. The volumes were adjusted accordingly in some instances where the reaction was carried in 20 uL. The table below summarizes the components of the RT-qPCR reactions:
(§9) The RT-qPCR reaction was performed using a QuantStudio (ThermoFisher) under the following fast cycling conditions. […]

[3] = test system: SMN2 CJ mRNA; experiment: Gene panel canonical junction qPCR assay: decrease in SMN2 CJ mRNA; details: protocol as for Table 2, read-out: SMN2 (IC50, decrease in CJ mRNA levels)
Protocol: as §1, §3, §4, §5, §7, §8, §9

[4] = test system: HTT mRNA, alternative junction (AJ); experiment: Splicing assay (RT-qPCR): increase in HTT alternative junction (AJ) mRNA; details: A673 or K562 cell line, 24 hours treatment, top dose 10 uM; concentration having 50% response in AJ increase
Protocol: as §1, §2, §3, §4, §5, §6

[5] = test system: HTT CJ mRNA; experiment: Gene panel canonical junction qPCR assay: decrease in HTT CJ mRNA; details: protocol as for Table 2, read-out: HTT (IC50, decrease in CJ mRNA levels)
Protocol: as §1, §3, §4, §5, §7, §8, §9

SMILES	IC50 [2]	IC50 [3]	IC50 [5]	AC50 [1]	AC50 [4]
Cc1cn2cc(NC(=O)c3ccc(N4CCNCC4)c4ccnnc34)c(C)cc2n1 [Compound 119, N-[2,7-dimethylimidazo[1,2-a]pyridin-6-yl]-5-(piperazin-1-yl) cinnoline-8-carboxamide]	1000 to 10000 nM	< 100 nM	1000 to 10000 nM	1000 to 10000 nM	1000 to 10000 nM
Cc1cn2cc(NC(=O)c3ccc(N4CCC(N(C)C)CC4)c4ccnnc34)cc(F)c2n1 [Compound 137, 5-[4-(dimethylamino)piperidin-1-yl]-N-[8-fluoro-2-methylimidazo[1,2-a]pyridin-6-yl] cinnoline-8-carboxamide]	100 to 1000 nM	< 100 nM	100 to 1000 nM	100 to 1000 nM	100 to 1000 nM
Cc1cn2cc(NC(=O)c3ccc(N4CCNCC4)c4ccnnc34)cc(Cl)c2n1 [Compound 124, N-[8-chloro-2-methylimidazo[1,2-a]pyridin-6-yl]-5-(piperazin-1-yl)cinnoline-8-carboxamide]	1000 to 10000 nM	< 100 nM	1000 to 10000 nM	1000 to 10000 nM	1000 to 10000 nM
Cc1cn2cc(NC(=O)c3ccc(N(C)[C@@H]4C[C@H]5CC[C@@H](C4)N5)c4ccnnc34)cc(F)c2n1 [Compound 156, 5-[(exo)-8-azabicyclo[3.2.1]octan-3-yl(methyl)amino]-N-[8-fluoro-2-methylimidazo[1,2-a]pyridin-6-yl]cinnoline-8-carboxamide]	> 10000 nM	100 to 1000 nM	> 10000 nM	> 10000 nM	> 10000 nM
Cc1cn2cc(NC(=O)c3ccc(N4CCNCC4)c4ccnnc34)ncc2n1 [Compound 120, N-[2-methylimidazo[1,2-a]pyrazin-6-yl]-5-(piperazin-1-yl) cinnoline-8-carboxamide]	> 10000 nM	< 100 nM	> 10000 nM	> 10000 nM	> 10000 nM
Cc1cn2cc(NC(=O)c3ccc(N4CCNCC4)c4ccnnc34)cc(C)c2n1 [Compound 125, N-[2,8-dimethylimidazo[1,2-a]pyridin-6-yl]-5-(piperazin-1-yl)cinnoline-8-carboxamide]	1000 to 10000 nM	< 100 nM	1000 to 10000 nM	1000 to 10000 nM	1000 to 10000 nM
Cc1cn2nc(NC(=O)c3ccc(C4CCNCC4)c4ccnnc34)cc(C)c2n1 [Compound 113, N-[2,8-dimethylimidazo[1,2-b]pyridazin-6-yl]-5-(piperidin-4-yl) cinnoline-8-carboxamide]	1000 to 10000 nM	100 to 1000 nM	1000 to 10000 nM	1000 to 10000 nM	1000 to 10000 nM
Cc1cn2cc(NC(=O)c3ccc(N4C[C@H]5CC[C@@H](C4)N5)c4ccnnc34)cc(F)c2n1 [Compound 108]	100 to 1000 nM	< 100 nM	1000 to 10000 nM	1000 to 10000 nM	1000 to 10000 nM
Cc1cn2nc(NC(=O)c3ccc(N4CCNCC4)c4ccnnc34)cc2c(C)n1 [Compound 123, N-[4,6-dimethylpyrazolo[1,5-a]pyrazin-2-yl]-5-(piperazin-1-yl)cinnoline-8-carboxamide]	1000 to 10000 nM	1000 to 10000 nM	1000 to 10000 nM	1000 to 10000 nM	1000 to 10000 nM
Cc1cn2cc(NC(=O)c3ccc(C4CCNCC4)c4ccnnc34)cc(F)c2n1 [Compound 103, N-[8-fluoro-2-methylimidazo[1,2-a]pyridin-6-yl]-5-(piperidin-4-yl) cinnoline-8-carboxamide]	1000 to 10000 nM	1000 to 10000 nM	100 to 1000 nM	1000 to 10000 nM	100 to 1000 nM

Continued, in another order:

IC50 [2]	IC50 [3]	IC50 [5]	SMILES	AC50 [1]	AC50 [4]
> 10000 nM	< 100 nM	1000 to 10000 nM	CCC1CN(c2ccc(C(=O)Nc3cc(F)c4nc(C)cn4c3)c3nnccc23)CCN1 (stereo in doubt) [Compound 151, 5-[(3S)-3-ethylpiperazin-1-yl]-N-[8-fluoro-2-methylimidazo[1,2-a]pyridin-6-yl]cinnoline-8-carboxamide]	1000 to 10000 nM	1000 to 10000 nM
> 10000 nM	< 100 nM	100 to 1000 nM	Cc1cn2cc(NC(=O)c3ccc(N4CCNC(C)C4)c4ccnnc34)cc(F)c2n1 (stereo in doubt) [Compound 146, N-[8-fluoro-2-methylimidazo[1,2-a]pyridin-6-yl]-5-[(3S)-3-methylpiperazin-1-yl]cinnoline-8-carboxamide]	100 to 1000 nM	100 to 1000 nM
1000 to 10000 nM	< 100 nM	1000 to 10000 nM	Cc1cn2cc(NC(=O)c3ccc(N4CCN(C)C(C)C4)c4ccnnc34)cc(F)c2n1 (stereo in doubt) [Compound 149, 5-[(3S)-3,4-dimethylpiperazin-1-yl]-N-[8-fluoro-2-methylimidazo[1,2-a]pyridin-6-yl]cinnoline-8-carboxamide]	1000 to 10000 nM	1000 to 10000 nM
1000 to 10000 nM	< 100 nM	100 to 1000 nM	Cc1cn2cc(NC(=O)c3ccc(N4CCNC(C)C4)c4nccnc34)cc(F)c2n1 (centres unmarked) [Compound 157, N-[8-fluoro-2-methylimidazo[1,2-a]pyridin-6-yl]-8-(3-methylpiperazin-1-yl)quinoxaline-5-carboxamide]	100 to 1000 nM	100 to 1000 nM
100 to 1000 nM	< 100 nM	1000 to 10000 nM	Cc1cn2cc(NC(=O)c3ccc(N4CCN5CCCC5C4)c4ccnnc34)cc(F)c2n1 (stereo in doubt) [Compound 154, 5-[(8aR)-hexahydro-1H-pyrrolo[1,2-a]pyrazin-2-yl]-N-[8-fluoro-2-methylimidazo[1,2-a]pyridin-6-yl]cinnoline-8-carboxamide]	1000 to 10000 nM	1000 to 10000 nM
1000 to 10000 nM	1000 to 10000 nM	1000 to 10000 nM	Cc1cn2cc(NC(=O)c3ccc(N4C[C@H]5C[C@@H]4C5N(C)C)c4ccnnc34)cc(F)c2n1 (stereo partly drawn) [Compound 148, 5-[(1R,4R)-5-(dimethylamino)-2-azabicyclo [2.1.1]hexan-2-yl]-N-[8-fluoro-2-methylimidazo[1,2-a]pyridin-6-yl] cinnoline-8-carboxamide]	1000 to 10000 nM	1000 to 10000 nM
